Assay results taken from patent publication US20220204510A1, “2,3-DIHYDRO-1H-PYRROLIZINE-7-FORMAMIDE DERIVATIVE AND APPLICATION THEREOF” (CHIA TAI TIANQING PHARMACEUTICAL GROUP CO., LTD., priority 2018, published 2022).
Where two headings read alike, the source gives them in different places.

Assays:
[1] = Metabolic stability in liver microsomes; type: in vitro ADME; details: mouse, CD-1 mice liver microsomes
Protocol: (§1) Experimental objective: to evaluate the metabolic stability of the test compound in CD-1 mice and human liver microsomes
(§2) Experimental procedures: first, the test compound (10 mM) was subjected to a two-step dilution, where the compound was diluted to an intermediate concentration of 100 μM with 100% methanol, and the working solution was diluted to 10 μM with a potassium phosphate buffer; eight 96-well incubation plates were prepared, and named T0, T5, T10, T20, T30, T60, Blank and NCF60, respectively; the reaction time points corresponding to the first 6 incubation plates were 0, 5, 10, 20, 30 and 60 min, respectively; for the Blank plate, neither the test compound nor a control compound was added, and for the NCF60 plate, potassium phosphate buffer was used in an incubation of 60 min in place of a NADPH regeneration system solution; 10 μL of the test compound working solution and 80 μL of the microsome working solution (liver microsome protein concentration was 0.625 mg/mL) were added to the T0, T5, T10, T20, T30, T60 and NCF60 plates, while only the microsome working solution was added to the Blank plate, and all the incubation plates were then placed in a 37° C. water bath for pre-incubation for about 10 min; after the pre-incubation, 10 μL of a NADPH regeneration system working solution was added into each sample well of all the plates except the NCF60 plate and T0 plate to start the reaction, and 10 μL of potassium phosphate buffer was added to each well of the NCF60 plate; therefore, in the test compound or control compound samples, the final reaction concentrations of the compound, testosterone, diclofenac and propafenone were 1 μM, the concentration of the liver microsomes was 0.5 mg/mL, and the final concentrations of DMSO and acetonitrile in the reaction system were 0.01% (v/v) and 0.99% (v/v), respectively; after incubation for an appropriate time (such as 5, 10, 20, 30, and 60 min), 300 μL of a stop solution (acetonitrile solution containing 100 ng/mL tolbutamide and 100 ng/mL labetalol) was added to each sample well to stop the reaction; 300 μL of the stop solution and then 10 μL of the NADPH working solution were added to the T0 plate, all the sample plates were shaken and centrifuged in a centrifuge (3220×g) for 20 min, and then 100 μL of supernatant was taken from each well and diluted with 300 μL of pure water for liquid chromatography-tandem mass spectrometry analysis.

HBV = experiment: qPCR test in the HBV in vitro test (HBV DNA in HepG2.2.15 cells); type: cell-based; details: Hepatitis B virus, 192 h, HBV DNA in HepG2.2.15 culture medium, day 8, read-out: Half maximal inhibitory concentration (EC50) of HBV
Protocol: To evaluate the inhibitory effect of the compound on HBV by detecting content of HBV DNA in HepG2.2.15 cells in a real-time qPCR test, with EC50 of the compound as an indicator.
3.1. HepG2.2.15 cells (4×10^4 cells/well) were inoculated into a 96-well plate and cultured at 37° C. in 5% CO2 overnight. 3.2. On day 2, the compound was 3-fold diluted in gradient for a total of 8 dilution gradients. The compound at different concentrations was added into the culture wells in duplicate. The final concentration of DMSO in the culture medium was 1%. 1 μM GLS4 was used as a 100% inhibition control (the structure of GLS4 disclosed in WO2008154817A1 is as follows:
1% DMSO was used as a 0% inhibition control. 3.3. On day 5, the culture medium was replaced with a fresh culture medium containing the compound. 3.4. On day 8, the culture medium in the culture wells was collected, and the high-throughput DNA purification kit (Qiagen-51162) was used to extract DNA. For specific steps, refer to the product manual.
3.6. Each well of the 96-well PCR plate was added with 15 μL of the reaction mixture, and then with 10 μL of sample DNA or HBV DNA standard. 3.7. The reaction conditions for PCR: heating at 95° C. for 10 min, degeneration at 95° C. for 15 s, and extension at 60° C. for 1 min, with a total of 40 cycles.
3.8.1. Calculation of the inhibition percentage: % Inh.=[1−(DNA copy number in the sample−DNA copy number in 1 μM GLS4)/(DNA copy number in the DMSO control−DNA copy number in 1 μM GLS4)]×100. 3.8.2. Calculation of EC50: half maximal inhibitory concentration (EC50) of the compound for HBV was calculated using GraphPad Prism software. 3.8.3.

[2] = Metabolic stability in liver microsomes; type: in vitro ADME, human
Protocol: as §1, §2

CYP2C9 = target: T1, CYP2C9 (Homo sapiens, UniProt P11712); experiment: Inhibition of human liver microsomal cytochrome P450 isoenzymes; type: in vitro ADME; details: human liver microsomes
T1 construct: from tissue; host or cells: human liver microsomes
T1 sequence (P11712 whole entry): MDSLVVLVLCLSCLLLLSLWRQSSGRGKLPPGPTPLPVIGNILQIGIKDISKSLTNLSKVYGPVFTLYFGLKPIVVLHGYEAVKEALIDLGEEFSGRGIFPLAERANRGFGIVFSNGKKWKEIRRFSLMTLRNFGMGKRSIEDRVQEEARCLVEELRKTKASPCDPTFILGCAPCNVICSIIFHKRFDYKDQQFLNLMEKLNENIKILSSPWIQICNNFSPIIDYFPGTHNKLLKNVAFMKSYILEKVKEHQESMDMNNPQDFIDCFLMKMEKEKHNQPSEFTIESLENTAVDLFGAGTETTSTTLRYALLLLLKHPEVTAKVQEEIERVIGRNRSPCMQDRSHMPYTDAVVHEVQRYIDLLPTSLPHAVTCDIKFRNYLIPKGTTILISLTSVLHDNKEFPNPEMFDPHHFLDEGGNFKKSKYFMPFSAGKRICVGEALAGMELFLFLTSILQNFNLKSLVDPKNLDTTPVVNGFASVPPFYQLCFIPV
Protocol: (§3) Experimental objective: to determine the inhibitory effect of the test compound on the activity of human liver microsomal cytochrome P450 isoenzymes (CYP1A2, CYP2C9, CYP2C19, CYP2D6 and CYP3A4). Experimental procedures: first, the test compound (10 mM) was diluted in gradient to prepare working solutions (100× final concentration) at concentrations of: 5, 1.5, 0.5, 0.15, 0.05, 0.015, and 0.005 mM, and working solutions of positive inhibitors for P450 isoenzymes (CYP1A2, CYP2C9, CYP2C19, CYP2D6, and CYP3A4) and the specific substrate mixtures thereof (5 in 1) were prepared simultaneously; human liver microsomes frozen in a−80° C. refrigerator were thawed on ice, and after all thawed, the human liver microsomes were diluted with PB to prepare a working solution at a specific concentration (0.253 mg/mL); 20 μL of the substrate mixture (20 μL of PB was added into the blank well) and 158 μL of the working solution of human liver microsomes were added into the reaction plate which was then placed on ice for use; then 2 μL of the test compound at each concentration (N=1) and a specific inhibitor (N=2) were added into the corresponding well, and the group without the inhibitor (test compound or the positive inhibitor) was added with a corresponding organic solvent as a control sample (the test compound control sample was 1:1 DMSO:MeOH; the positive control sample was 1:9 DMSO:MeOH); after pre-incubation under a 37° C. water bath for 10 min, 20 μL of a coenzyme factor (NADPH) solution was added into the reaction plate and incubated under a 37° C. water bath for 10 min, 400 μL of a cold acetonitrile solution (the internal standard was 200 ng/mL Tolbutamide and Labetalol) was added to terminate the reaction, and the reaction plate was placed on a shaker and shaken for 10 min; after centrifugation at 4,000 rpm for 20 min, 200 μL of the supernatant was collected and added to 100 μL of water to dilute the sample, and, finally, the plate was sealed, oscillated shaken evenly, and subjected to LC/MS/MS detection.

CYP2D6 = target: T2, CYP2D6 (Homo sapiens, UniProt P10635); experiment: as above; type: in vitro ADME; details: human liver microsomes
T2 construct: from tissue; host or cells: human liver microsomes
T2 sequence (P10635 whole entry): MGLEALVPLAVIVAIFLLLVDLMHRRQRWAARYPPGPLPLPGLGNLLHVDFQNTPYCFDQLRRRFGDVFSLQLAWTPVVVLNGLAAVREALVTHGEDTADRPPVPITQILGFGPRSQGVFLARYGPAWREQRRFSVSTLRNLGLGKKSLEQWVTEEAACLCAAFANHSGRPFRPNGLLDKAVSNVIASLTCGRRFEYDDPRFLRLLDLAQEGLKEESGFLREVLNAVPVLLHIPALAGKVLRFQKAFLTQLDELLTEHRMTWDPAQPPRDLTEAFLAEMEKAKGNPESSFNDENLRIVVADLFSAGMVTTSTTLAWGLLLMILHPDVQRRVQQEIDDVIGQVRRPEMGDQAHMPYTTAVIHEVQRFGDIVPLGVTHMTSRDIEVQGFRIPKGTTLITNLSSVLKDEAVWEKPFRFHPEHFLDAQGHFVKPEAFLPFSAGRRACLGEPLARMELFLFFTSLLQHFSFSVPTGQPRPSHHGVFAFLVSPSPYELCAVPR
Protocol: as §3

CYP1A2 = target: T3, CYP1A2 (Homo sapiens, UniProt P05177); experiment: as above; type: in vitro ADME; details: human liver microsomes
T3 construct: from tissue; host or cells: human liver microsomes
T3 sequence (P05177 1-516): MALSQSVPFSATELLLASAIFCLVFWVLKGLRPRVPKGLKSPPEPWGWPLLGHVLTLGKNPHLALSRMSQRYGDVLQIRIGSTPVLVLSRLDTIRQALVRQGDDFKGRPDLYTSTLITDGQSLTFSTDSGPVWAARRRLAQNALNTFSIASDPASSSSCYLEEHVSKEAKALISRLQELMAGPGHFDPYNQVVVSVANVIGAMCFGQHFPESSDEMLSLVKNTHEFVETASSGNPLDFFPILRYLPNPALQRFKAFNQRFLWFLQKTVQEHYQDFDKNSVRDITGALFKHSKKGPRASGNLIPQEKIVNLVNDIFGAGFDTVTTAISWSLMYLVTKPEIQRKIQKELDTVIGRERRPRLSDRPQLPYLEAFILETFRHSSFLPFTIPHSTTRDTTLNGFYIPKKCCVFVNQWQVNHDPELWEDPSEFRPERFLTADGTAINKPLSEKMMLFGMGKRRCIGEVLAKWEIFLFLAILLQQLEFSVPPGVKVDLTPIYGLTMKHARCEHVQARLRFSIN
Protocol: as §3

CYP2C19 = target: T4, CYP2C19 (Homo sapiens, UniProt P33261); experiment: as above; type: in vitro ADME; details: human liver microsomes
T4 construct: from tissue; host or cells: human liver microsomes
T4 sequence (P33261 whole entry): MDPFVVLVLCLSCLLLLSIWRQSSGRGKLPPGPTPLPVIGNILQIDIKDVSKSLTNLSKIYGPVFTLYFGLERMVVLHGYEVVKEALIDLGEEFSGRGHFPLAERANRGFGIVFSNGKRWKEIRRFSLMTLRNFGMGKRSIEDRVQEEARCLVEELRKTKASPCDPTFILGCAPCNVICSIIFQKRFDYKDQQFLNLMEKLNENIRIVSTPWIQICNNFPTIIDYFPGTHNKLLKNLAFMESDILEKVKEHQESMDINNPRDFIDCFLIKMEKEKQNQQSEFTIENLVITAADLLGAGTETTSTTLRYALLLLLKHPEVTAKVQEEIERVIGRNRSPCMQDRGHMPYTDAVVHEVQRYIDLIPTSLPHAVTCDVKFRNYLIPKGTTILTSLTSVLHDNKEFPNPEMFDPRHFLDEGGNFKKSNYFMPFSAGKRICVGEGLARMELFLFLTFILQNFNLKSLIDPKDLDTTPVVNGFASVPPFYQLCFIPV
Protocol: as §3

CYP3A4 = target: T5, CYP3A4 (Homo sapiens, UniProt P08684); experiment: as above; type: in vitro ADME; details: human liver microsomes
T5 construct: from tissue; host or cells: human liver microsomes
T5 sequence (P08684 whole entry): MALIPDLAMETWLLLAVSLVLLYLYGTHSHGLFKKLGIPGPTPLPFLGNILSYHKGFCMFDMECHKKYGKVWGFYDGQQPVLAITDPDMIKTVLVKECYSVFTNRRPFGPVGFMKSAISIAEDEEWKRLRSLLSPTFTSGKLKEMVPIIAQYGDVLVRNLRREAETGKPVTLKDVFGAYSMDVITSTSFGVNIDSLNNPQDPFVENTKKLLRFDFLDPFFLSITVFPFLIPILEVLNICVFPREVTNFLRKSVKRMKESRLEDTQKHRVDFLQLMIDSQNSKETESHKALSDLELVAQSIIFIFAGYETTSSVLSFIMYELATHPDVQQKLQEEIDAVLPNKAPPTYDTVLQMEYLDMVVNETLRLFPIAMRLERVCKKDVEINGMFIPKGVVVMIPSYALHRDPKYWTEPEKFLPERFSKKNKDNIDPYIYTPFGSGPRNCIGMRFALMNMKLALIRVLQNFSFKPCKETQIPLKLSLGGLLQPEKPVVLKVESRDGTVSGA
Protocol: as §3

C[C@]1(NC(=O)C(=O)c2c(Cl)c(C(=O)Nc3ccc(F)c(F)c3)c3n2CCC3)CC[C@@H](CC(=O)O)CC1 [Compound 17]
CLint scaled at 1 μM [1]: < 38 mL/min/kg | half-life at 1 μM ([1]; 1 μM compound, 0.5 mg/mL): > 2.42 h | microsomal CLint at 1 μM ([1]; read-out: CLint(mic)): < 9.6 µL/min/mg | EC50 (HBV): 0.007 µM | half-life at 1 μM ([2]; Human liver microsomes, 1 μM compound, 0.5 mg/mL): > 2.42 h | CLint scaled at 1 μM ([2]; human liver microsomes): < 8.6 mL/min/kg | microsomal CLint at 1 μM ([2]; human liver microsomes, read-out: CLint(mic)): < 9.6 µL/min/mg | IC50 (CYP2C9): > 50 µM | IC50 (CYP2D6): > 50 µM | IC50 (CYP1A2): > 50 µM | IC50 (CYP2C19): > 50 µM | IC50 (CYP3A4): > 50 µM
